Reference: PubChem BioAssay (NCI)
Values joined by “and” are separate entries in the source; they are usually repeats but may differ in a detail not shown here. Equal entries are not always repeated.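 The compound was tested at five concentrations on cells cultured in 96-well plates, with a 48-hour exposure period. GI50 marks 50% less growth. TGI denotes the concentration required for complete inhibition of growth.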

What was measured:
Assay in all cases: NCI tumour cell line growth inhibition, 48 h
[1] = test system: HL-60(TB) leukemia
[2] = test system: HS 578T breast
[3] = test system: MDA-MB-435
[4] = test system: PC-3 prostate
[5] = test system: SF-295 CNS
[6] = test system: COLO 205 colon
[7] = test system: RPMI-8226 leukemia
[8] = test system: SW-620 colon
[9] = test system: 786-0 renal
[10] = test system: HCC-2998 colon
[11] = test system: UACC-62 melanoma
[12] = test system: EKVX NSCLC
[13] = test system: HOP-92 NSCLC
[14] = test system: NCI/ADR-RES ovarian
[15] = test system: LOX IMVI melanoma
[16] = test system: OVCAR-4 ovarian
[17] = test system: M14 melanoma
[18] = test system: SNB-75 CNS
[19] = test system: SK-OV-3 ovarian
[20] = test system: KM12 colon
[21] = test system: CCRF-CEM leukemia
[22] = test system: K-562 leukemia
[23] = test system: SF-539 CNS
[24] = test system: MDA-MB-231 breast
[25] = test system: IGROV1 ovarian
[26] = test system: BT-549 breast
[27] = test system: CAKI-1 renal
[28] = test system: SK-MEL-5 melanoma
[29] = test system: DU-145 prostate
[30] = test system: RXF 393 renal
[31] = test system: HCT-116 colon
[32] = test system: SK-MEL-2 melanoma
[33] = test system: TK-10 renal
[34] = test system: NCI-H460 lung
[35] = test system: UACC-257 melanoma
[36] = test system: A498 renal
[37] = test system: NCI-H23 lung
[38] = test system: SN12C renal
[39] = test system: SK-MEL-28 melanoma
[40] = test system: HT29 colon
[41] = test system: T-47D breast
[42] = test system: ACHN renal
[43] = test system: HOP-62 NSCLC
[44] = test system: HCT-15 colon
[45] = test system: U251 CNS
[46] = test system: MOLT-4 leukemia
[47] = test system: MALME-3M melanoma
[48] = test system: NCI-H226 lung
[49] = test system: UO-31 renal
[50] = test system: SNB-19 CNS
[51] = test system: OVCAR-8 ovarian
[52] = test system: MCF7 breast
[53] = test system: OVCAR-3 ovarian
[54] = test system: SF-268 CNS
[55] = test system: NCI-H522 lung
[56] = test system: OVCAR-5 ovarian
[57] = test system: SR leukemia
[58] = test system: A549 NSCLC

COc1ccc(-c2cc3c(C)nc(N)nc3n(C3CCC(OCCO)CC3)c2=O)cn1 (stereo not given)
GI50 [1]: 34.5 nM and 94.1 nM
TGI [1]: > 10000 nM and 6380 nM
GI50 [2]: 34.5 nM and 15 nM
TGI [2]: 272 nM and 113 nM
GI50 [3]: 98.5 nM and 84.2 nM
TGI [3]: 941 nM and 564 nM
GI50 [4]: 68.7 nM and 22.2 nM
TGI [4]: > 2730 nM and 299 nM
GI50 [5]: 50.1 nM and 40.1 nM
TGI [5]: 326 nM and 275 nM
GI50 [6]: 88.2 nM and 137 nM
TGI [6]: 874 nM and 1140 nM
GI50 [7]: 157 nM and 61.2 nM
TGI [7]: > 3740 nM and 3270 nM
GI50 [8]: 181 nM and 162 nM
TGI [8]: > 10000 nM
GI50 [9]: 69.4 nM and 60.5 nM
TGI [9]: 614 nM and 442 nM
GI50 [10]: 94.1 nM and 130 nM
TGI [10]: 1800 nM and 1710 nM
GI50 [11]: 20 nM and 46 nM
TGI [11]: 165 nM and 365 nM
GI50 [12]: 97.1 nM and 46.5 nM
TGI [12]: 700 nM and 396 nM
GI50 [13]: 36.2 nM
GI50 [14]: 141 nM and 139 nM
TGI [14]: 2060 nM and 1650 nM
GI50 [15]: 111 nM and 88.2 nM
TGI [15]: 1120 nM and 943 nM
GI50 [16]: 140 nM and 114 nM
TGI [16]: 2060 nM and 841 nM
GI50 [17]: 99 nM and 68.6 nM
TGI [17]: 2690 nM and 1050 nM
GI50 [18]: 15.1 nM and < 11.7 nM
TGI [18]: 137 nM and 177 nM
GI50 [19]: 44 nM and 81.4 nM
TGI [19]: 291 nM and 527 nM
GI50 [20]: 231 nM and 209 nM
TGI [20]: 3900 nM and 2920 nM
GI50 [21]: 134 nM and 80.3 nM
TGI [21]: > 23800 nM
GI50 [22]: 593 nM and 360 nM
TGI [22]: > 100000 nM
GI50 [23]: 131 nM and 126 nM
TGI [23]: 552 nM and 461 nM
GI50 [24]: 96.7 nM and 144 nM
TGI [24]: 792 nM and 1130 nM
GI50 [25]: 21 nM and 19.9 nM
TGI [25]: 98.3 nM and 92 nM
GI50 [26]: 62.2 nM and 31.7 nM
TGI [26]: 666 nM and 359 nM
GI50 [27]: 37.9 nM and 86.6 nM
TGI [27]: 380 nM and 575 nM
GI50 [28]: 144 nM and 103 nM
TGI [28]: 543 nM and 650 nM
GI50 [29]: 153 nM and 106 nM
TGI [29]: > 10000 nM and 8280 nM
GI50 [30]: 40.3 nM and 46.7 nM
TGI [30]: 289 nM and 309 nM
GI50 [31]: 243 nM and 222 nM
TGI [31]: > 10000 nM and 18900 nM
GI50 [32]: 124 nM and 67.4 nM
TGI [32]: 549 nM and 392 nM
GI50 [33]: 26 nM and 26.4 nM
TGI [33]: 235 nM and 197 nM
GI50 [34]: 62.9 nM and 47.5 nM
TGI [34]: > 35300 nM
GI50 [35]: 58.6 nM and 42.3 nM
TGI [35]: 414 nM and 336 nM
GI50 [36]: 21.1 nM
TGI [36]: 92.5 nM
GI50 [37]: 156 nM and 97.7 nM
TGI [37]: > 6910 nM
GI50 [38]: 79 nM and 75.8 nM
TGI [38]: > 100000 nM
GI50 [39]: 51.7 nM and 74 nM
TGI [39]: 425 nM and 604 nM
GI50 [40]: 78.1 nM and 80.9 nM
TGI [40]: 1830 nM and 747 nM
GI50 [41]: 13.1 nM and 21.1 nM
TGI [41]: 73.5 nM and 147 nM
GI50 [42]: 97.1 nM and 97.3 nM
TGI [42]: > 6330 nM
GI50 [43]: 99.7 nM and 113 nM
TGI [43]: 2110 nM and 1930 nM
GI50 [44]: 106 nM and 97.4 nM
TGI [44]: > 6210 nM and 5110 nM
GI50 [45]: 181 nM and 162 nM
TGI [45]: 2750 nM and 1900 nM
GI50 [46]: 67.7 nM and 62.6 nM
TGI [46]: > 10000 nM and 7350 nM
GI50 [47]: 35 nM and 19.5 nM
TGI [47]: 263 nM and 134 nM
GI50 [48]: 74.2 nM and 105 nM
TGI [48]: > 2190 nM and 946 nM
GI50 [49]: 26.5 nM and 16.9 nM
TGI [49]: 378 nM and 492 nM
GI50 [50]: 318 nM and 280 nM
TGI [50]: 2840 nM and 3430 nM
GI50 [51]: 141 nM and 128 nM
TGI [51]: 2360 nM and 1410 nM
GI50 [52]: 26.6 nM and 22.8 nM
TGI [52]: > 10000 nM and 1030 nM
GI50 [53]: 61.4 nM and 39.5 nM
TGI [53]: 486 nM and 427 nM
GI50 [54]: 78.4 nM and 77.9 nM
TGI [54]: > 4350 nM and 5490 nM
GI50 [55]: 52 nM and 33.7 nM
TGI [55]: 800 nM and 386 nM
GI50 [56]: 73.4 nM and 48.9 nM
TGI [56]: 1950 nM and 1020 nM
GI50 [57]: 257 nM and 80.5 nM
TGI [57]: > 10000 nM and 1440 nM
GI50 [58]: 123 nM and 109 nM
TGI [58]: 959 nM and 489 nM
